Test results as given in patent US4839380A, “1-Thiocarbamoylmethylpyrrolidine-2-thione, medical compositions of, and anti-hypoxic and nootropic use thereof” (priority 1988, dated 1989).

Assays:
[1] = Learning speed, performing of conditional reflex and memory consolidation (overall); assay type: in vivo, rats and mice; conditions: conditional reflex, memory consolidation, versus pyracetam
Method: The compound according to the present invention was also tested for the effect produced thereby on processes of learning and memorizing.
The study of the compound according to the present invention for the speed of learning and performing the produced conditioned reflux was effected in experiments on rats using the method of electrodefensive conditioned reflexes of avoidance.
In experiments on mice the compound according to the present invention was tested for the effects produced thereby on processes of memory consolidation according to the results of investigation of the conditional response of passive avoidance.

[2] = Convulsions caused by thiosemicarbazide; assay type: in vivo, white mice
Text: The interaction of the compound according to the present invention with thiosemicarbazide--a specific antagonist of gamma-aminobutyric acid (GABA) was also studied.
Due to the fact that in functioning of the brain, in particular in processes of learning and memorizing, gammaaminobutyric acid (GABA) plays an important role, the possibility of the presence of a GABA-ergic component in the mechanism of action of the compound according to the present invention was studied. To this end, the ability of the compound according to the present invention to prevent convulsions caused by thiosemicarbazide, which is an inhibitor of an enzyme synthesizing gamma-aminobutyric acid, was studied.
The experiments were carried out on 140 white mice of 18-20 g mass. Thiosemicarbazide was administered hypodermally in the dose of 20 mg/kg. The compound according to the present invention was administered intraperitoneally in the doses of 50, 250 and 500 mg/kg 20 minutes after administration of thiosemicarbazide. For every dose 20 mice were used. The presence of the anticonvulsion activity was determined by the change of the latent period of occurrence of convulsions and by extension of the period of death of the animals. The experiments were carried out in comparison with pyracetam.

mice [3] = experiment: Toxicity and general effect; assay type: in vivo
Method: The study of toxicity and a general effect of the compound according to the present invention was effected on mice with a mass of 18-20 g upon an intraperitoneal administration of the compound according to the present invention in doses of from 100 to 1.500 mg/kg.

[4] = Solubility and storage stability; assay type: physicochemical
mice [5] = experiment: Memory consolidation: conditioned reflex of passive avoidance in a two-chamber unit; assay type: in vivo, mice (nondescript male white)
Method: The study of the effect on processes of consolidation (fixation) of memory was carried out on 400 nondescript male white mice with a mass of 18-20 g using the procedure of a conditioned reflex of passive avoidance in a two-chamber unit, one of the chambers being darkened. In the bottom of the dark chamber an electrode floor is mounted, to which an electric current (50-60 V) can be applied.
Due to their biological specific features, mice prefer to stay in the dark chamber. At the end of the exposure lasting for 180 seconds of the residence of an animal in the dark chamber which, as a rule, actually takes place, an electric current is applied to the irritating device and a mouse is forced to leave its shelter.
Therefore, after a single-time training a conditioned reflex of passive avoidance is elaborated in mice. The resproduction of the effect which is evaluated by the laten period time (in seconds) of the visit to the dark chamber (or by the time of residence in the light chamber) was effected after 24 hours.
The compound according to the present invention and pyracetam were administered in doses of 200-250 mg/kg (pyracetam also in the dose of 1,000 mg/kg) intraperitoneally right after elaboration of the conditioned reflex.

mice [6] = experiment: Acute hypobaric hypoxia: height ceiling for mice (Hmax); assay type: in vivo, mice (male, tetrahybrids)
Method: The antihypoxic effect of the compound according to the present invention was studied in comparison with pyracetam on various experimental models of hypoxic states in experiments on mice and rats. The compound according to the present invention and pyracetam were administered intraperitoneally in the form of an aqueous emulsion prepared with Tween-80.
The studies were carried out on a model of an acute hypobaric hypoxia.
An acute […] hypoxia was modelled in a flow-type barometric chamber at an ambient temperature of 17°-20° C. with absorption of carbon dioxide and water.
The test animals (male mice, tetrahybrids) with a mass of 15-22 g of the same generation were "lifted" (under simulation conditions) at the mean speed of 50 m/sec to the height of 11,000 m at which the lifespan (in minutes) for the same series of experiments was evaluated. Furthermore, the mice were discretely lifted at the same speed to the height of 10,000 m where they stayed for 1 minute and then to the height of 11,000 m, where they again were kept for 1 minute and so on, till their death for the determination of the height "ceiling", The animals' death was adjudicated by the occurrence of an agonal breathing against the background of convulsions. The total number of mice employed in the experiments was 200.
As the comparison preparation pracetam was used. The compound according to the present invention and pyracetam were administered one hour before the "lift".

[7] = prior art; cited from earlier work
[8] = dose 4 times that of the compound of the invention

NC(=S)CN1CCCC1=S [Compound of the present invention, 1-thiocarbamylmethylpyrrolidine-2-thione]
effective doses smaller than those of pyracetam [1]: 4-5 times | Latent period of convulsion occurrence ([2]; 50 mg/kg): 59 (51.5-66.5) min | Time period after which animals die ([2]; 50 mg/kg): 76 (64-88) min | Latent period of convulsion occurrence ([2]; 250 mg/kg): 82.6 (76.I-89.I) min | Time period after which animals die ([2]; 250 mg/kg): 100.8 min | Latent period of convulsion occurrence ([2]; 500 mg/kg): 80 (75.6-86.4) min | Time period after which animals die ([2]; 500 mg/kg): 105 (95-115) min | extension of the latent period of occurrence of convulsions as compared to the control ([2]; 250 and 500 mg/kg i.p.): 25-30% | extension of the period of death occurrence as compared to the control ([2]; 250 and 500 mg/kg i.p.): 45-50% | toxicity classification (mice [3]; based on LD50): low-toxic | dose with which suppression of a general state of the animals starts (mice [3]; mice, intraperitoneal): 250 mg/kg | solubility in N,N-dimethylformamide ([4]; N,N-dimethylformamide): soluble | solubility in ether, hexane ([4]; ether, hexane): insoluble | storage stability ([4]; storage): stable in storage | effective dose lower than that of pyracetam (mice [5]; 200 mg/kg versus pyracetam 1.000 mg/kg): 5 times | minimal effective dose (mice [5]; Mus musculus, ip, 24 h, read-out: effective dose (memory consolidation)): 200 mg/kg | duration of the latent period of the reflex of passive avoidance (mice [5]; ip, 200 mg/kg, 24 h): 136.2 ± 6.6 s | efficiency of the positive influence upon dose increasing (mice [5]; up to 500 mg/kg): does not grow | height ceiling for mice (Hmax) (mice [6]; 250 mg/kg): 14.0 ± 0.707 thous. m | elevation of the height ceiling as compared to the control and pyracetam (mice [6]; 500 mg/kg): 4,000 m | height ceiling for mice (Hmax) (mice [6]; 500 mg/kg): 15.57 ± 0.85 thous. m

NC(=O)CN1CCCC1=O [Pyracetam, 1-carbamidomethylpyrrolidone-2, reference compound]
Latent period of convulsion occurrence ([2]; 1000 mg/kg): 66.6 (61.0-72.2) min | Time period after which animals die ([2]; 1000 mg/kg): 79.9 (64-96.8) min | Latent period of convulsion occurrence ([2]; 2000 mg/kg): 70.6 (65.6-75.6) min | Time period after which animals die ([2]; 2000 mg/kg): 82 (73.6-90.4) min | extension of the latent period of occurrence of convulsions as compared to the control [2, 8]: 10% | extension of the period of death as compared to the control [2, 8]: 17% | effect on thiosemicarbazide convulsions similar to that of the compound of the invention ([2]; higher doses): pronounced but very slightly | extension of the latent period of the conditioned reflex of passive avoidance (control = 100%) (mice [5]; 1.000 mg/kg): 33.7% | effect on the latent period of passive avoidance (mice [5]; doses lower than 1.000 mg/kg): inactive | effect of extension of the latent period of the reflex of passive avoidance (mice [5]; only in the dose of 1.000 mg/kg, pyracetam, 1,000 mg/kg): the same effect | stimulative effect on the mechanisms of memory consolidation and performance of conditioned reflexes [7]: absence of a pronounced stimulative effect | height ceiling for mice (Hmax) (mice [6]; 250 mg/kg): 10.96 ± 0.91 thous. m | height ceiling for mice (Hmax) (mice [6]; 500 mg/kg): 11.55 ± 0.62 thous. m
